In patent US4585777A, “(-)-Trans-4-(4-fluorophenyl)-3-(4-methoxyphenoxy)methylpiperidine for potentiating 5-HT” (A/S Ferrosan, priority 1984, dated 1986):

How the values were obtained:
5-HT uptake = assay: Potentiation of 5-HTP (5-Hydroxytryptophane) induced hypermotility in mice (Procedure/Test 173); 5-HT potentiation or 5-HT uptake-inhibition; type: in vivo, mice (female, NMRI strain); conditions: for ED (2-fold activity of controls): Mus musculus, sc, read-out: Test 173: dose increasing the activity to double the activity of controls receiving 5-HTP alone (ED), mice, s.c.; for FG 7080 is better by: 5-HT Potentiation Factor: factor by which FG 7080 is better than the listed compound; for FG 7080 is better by: 5-HT Potentiation %: percent by which FG 7080 is better than the listed compound
Source text: (§1) (J. Buus Lassen, European Journal of Pharmacology 47, 351-358 (1978)). See also Squires in Acta Pharmacol. et Toxicol, 1972, 31 Suppl. 1,35 for a description of a further procedure for measurement of the same 5-HT uptake-inhibitory phenomenon.
I. Potentiation of 5-HTP (5-Hydroxytryptophane) induced hypermotility in mice (Procedure 173)
(§2) This behavior is characterized by continuous jerky locomotion, head movements from side to side, abduction of the hind limbs, tremor, and lordosis.
Measurement of the motility after administration of test drugs to 5-HTP-pretreated mice is therefore used as a test for 5-HT-potentiation, which most probably proceeds through an inhibition of 5-HT uptake.
Method: Female mice of the NMRI strain weighing 20-22 g are used. The controls receive 5-HTP 150 mg/kg (15 ml/kg) i.p. (i.p.=intraperitoneally) and thirty (30) minutes later physiological saline (20 ml/kg) s.c. (s.c.=subcutaneously). The motility is measured by an Animex™ motimeter 45-75 minutes after 5-HTP administration. The test animals received test substances s.c. (20 ml/kg) instead of physiological saline. Five groups of two (2) mice are used for control and per dose of each test drug. the test substance is dosed according to the dose scale 1, 1.6, 2.5, 4, 6.3, and 10 mg/kg etc.
The best straight line is fitted through the points in a coordinate system (abscissa log dose, ordinate log activity). […] The activity of controls is investigated in thirty (30) groups of two (2) mice.

[1] = Acute Toxicity in Mice (Procedure/Test 001); type: in vivo; conditions: mouse, in vivo, sc, lethality at 24 hours, water-soluble salt
Source text: (§3) II. Acute Toxicity in Mice (Procedure 001)
(§4) Results are expressed as LD50 = . . . mg/kg s.c.

mice [2] = assay: in vivo; conditions: for TI (Therapeutic Index), 001/173: LD50/ED50, mice s.c.; for FG 7080 is better by: T.I. Factor: factor by which FG 7080 is better than the listed compound; for FG 7080 is better by: T.I. %: percent by which FG 7080 is better than the listed compound
Source text: as §1

mice [3] = assay: Acute Toxicity in Mice (Procedure/Test 001); type: in vivo; conditions: s.c., lethality at 24 hours, water-soluble salt, 1440 min
Source text: as §3, §4

in vivo = conditions: mouse, in vivo, sc, TI (Therapeutic Index), 001/173, LD50/ED50, mice s.c.
Source text: as §1

mice [4] = conditions: Reference 6; cited from earlier work
[5] = References 1-4, cited from earlier work
mice [6] = assay: Locomotor activity / behavior in mice after 5-HTP, with or without pretreatment (background of Procedure 173); type: in vivo
Source text: as §2
Therefore, increased 5-HT in brain seems to be necessary for development of the abnormal behavior, but catecholamine release is probably not related to hyperactivity.

[7] = 5-HTP 150 mg/kg i.p. 30 min before, motility 45-75 min after 5-HTP, water-soluble salt
[8] = versus (+) trans isomer FG 8035

Structure (SMILES): COc1ccc(OC[C@@H]2CN(C)CC[C@H]2c2ccccc2)cc1 (single isomer, unassigned) [FG 4963, reference compound]
- ED (2-fold activity of controls) (5-HT uptake; [7]): 2.8 mg/kg
- FG 7080 is better by: 5-HT Potentiation Factor (5-HT uptake): 2.8
- FG 7080 is better by: 5-HT Potentiation % (5-HT uptake): 280%
- LD50 at 24 h [1]: 375 mg/kg
- TI (Therapeutic Index), 001/173 (mice [2]): 134
- FG 7080 is better by: T.I. Factor (mice [2]): 7.46
- FG 7080 is better by: T.I. % (mice [2]): 746%

Structure (SMILES): COc1ccc(OC[C@@H]2CNCC[C@H]2c2ccccc2)cc1 (single isomer, unassigned) [FG 4996, reference compound]
- ED (2-fold activity of controls) (5-HT uptake; [7]): 9 mg/kg
- Test 001: LD50 (mice [3]): 125 mg/kg
- selectivity ratio (in vivo): 14

Structure (SMILES): Fc1ccc([C@@H]2CCNC[C@H]2COc2ccc3c(c2)OCO3)cc1 (single isomer, unassigned) [FG 7051]
- LD50 at 24 h [1]: 285 mg/kg

Structure (SMILES): COc1ccc(OC[C@@H]2CN(C)CC[C@H]2c2ccc(F)cc2)cc1.Cl (single isomer, unassigned) [FG 8032, (+)-trans-4-(4-fluorophenyl)-3-[(4-methoxyphenoxy)methyl]-1-methylpiperidine hydrochloride]
- ED (2-fold activity of controls) (5-HT uptake; [7]): 23 mg/kg
- FG 7080 is better by: 5-HT Potentiation Factor (5-HT uptake): 23
- FG 7080 is better by: 5-HT Potentiation % (5-HT uptake): 2300%
- LD50 at 24 h [1]: 400 mg/kg
- TI (Therapeutic Index), 001/173 (mice [2]): 17
- FG 7080 is better by: T.I. Factor (mice [2]): 58.82
- FG 7080 is better by: T.I. % (mice [2]): 5882%

Structure (SMILES): CN1CC[C@@H](c2ccc(F)cc2)[C@H](COc2ccc3c(c2)OCO3)C1 (single isomer, unassigned) [FG 7043, reference compound]
- ED (2-fold activity of controls) (5-HT uptake; [7]): 4 mg/kg
- LD50 at 24 h [1]: 250 mg/kg
- selectivity ratio (in vivo): 63

Structure (SMILES): CC(N)(Cc1ccc(O)cc1)C(=O)O (stereo not drawn) [α-methyl-p-tyrosine]
- effect of pretreatment on the hyperactivity (5-HTP plus 5-HT-uptake blocker) (mice [4]): does not influence this hyperactivity

Structure (SMILES): COc1ccc(OC[C@@H]2CN(C)CC[C@H]2c2ccc(F)cc2)cc1 (relative stereo) [FG 98-I]
- ED (2-fold activity of controls) (5-HT uptake; [7]): 1.3 mg/kg
- FG 7080 is better by: 5-HT Potentiation Factor (5-HT uptake): 1.3
- FG 7080 is better by: 5-HT Potentiation % (5-HT uptake): 130%
- LD50 at 24 h [1]: 600 mg/kg
- selectivity ratio (in vivo): 461
- FG 7080 is better by: T.I. Factor (mice [2]): 2.17
- FG 7080 is better by: T.I. % (mice [2]): 217%

Structure (SMILES): COc1ccc(OC[C@@H]2CNCC[C@H]2c2ccc(F)cc2)cc1 (single isomer, unassigned) [FG 7080, (-)-trans-4-(4-fluorophenyl)-3-(4-methoxyphenoxy)methylpiperidine]
- ED (2-fold activity of controls) (5-HT uptake; [7]): 1 mg/kg
- 5-HT potentiation compared with most structurally closely-related compounds, in words (5-HT uptake; Table I comparison): remarkably and unpredictably superior
- times as active in 5-HT potentiation (5-HT uptake; [8]): approximately 22 times
- times as active in 5-HT potentiation, as % (5-HT uptake; [8]): ~2200%
- superior as to 5-HT potentiation, as % (5-HT uptake; versus FG 4996): ~900%
- superior by a factor as to 5-HT potentiation (5-HT uptake; versus FG 4996): approximately 9 times
- 5-HT potentiation activity, as % (5-HT uptake; versus FG 7006): ~2000%
- 5-HT potentiation activity, times as great (5-HT uptake; versus FG 7006): approximately 20 times
- LD50 at 24 h [1]: 1000 mg/kg
- TI (Therapeutic Index), 001/173 (mice [2]): 1000
- Therapeutic Index compared with most structurally closely-related compounds, in words (mice [2]; Table I comparison): even more remarkably and unpredictably superior
- superior as to Therapeutic Index, as % (mice [2]; versus FG 4996): > 7100%
- superior by a factor as to Therapeutic Index (mice [2]; versus FG 4996): greater than 71 times
- Therapeutic Index, as % (mice [2]; versus FG 7006): > 5500%
- Therapeutic Index, times as great (mice [2]; versus FG 7006): more than 55 times
- Therapeutic Index, as % (mice [2]; versus FG 8035): > 4100%
- Therapeutic Index, times as great (mice [2]; versus FG 8035): more than 41 times

Structure (SMILES): COc1ccc(OC[C@@H]2CN(C)CC[C@H]2c2ccccc2)cc1 (relative stereo) [FG 4932, reference compound]
- ED (2-fold activity of controls) (5-HT uptake; [7]): 7.7 mg/kg
- LD50 at 24 h [1]: 100 mg/kg
- selectivity ratio (in vivo): 13

Structure (SMILES): COc1ccc(OC[C@@H]2CN(C)CC[C@H]2c2ccccc2)cc1 (single isomer, unassigned) [FG 4962, reference compound]
- FG 7080 is better by: 5-HT Potentiation Factor (5-HT uptake): 3.8
- Test 173: dose increasing the activity to double the activity of controls receiving 5-HTP alone (ED) (5-HT uptake; mice, s.c., 5-HTP 150 mg/kg i.p. 30 min before, motility 45-75 min after 5-HTP, water-soluble salt): 3.8 mg/kg
- FG 7080 is better by: 5-HT Potentiation % (5-HT uptake): 380%
- Test 001: LD50 (mice [3]): 200 mg/kg
- TI (Therapeutic Index), 001/173 (mice [2]): 53
- FG 7080 is better by: T.I. Factor (mice [2]): 19.87
- FG 7080 is better by: T.I. % (mice [2]): 1887%

Structure (SMILES): COc1ccc(OC[C@@H]2CN(C)CC[C@H]2c2ccc(F)cc2)cc1 (single isomer, unassigned) [FG 8033, (-)-trans-4-(4-fluorophenyl)-3-[(4-methoxyphenoxy)-methyl]-1-methyl-piperidine]
- ED (2-fold activity of controls) (5-HT uptake; [7]): 0.5 mg/kg
- LD50 at 24 h [1]: 400 mg/kg
- TI (Therapeutic Index), 001/173 (mice [2]): 800

Structure (SMILES): N[C@@H](Cc1c[nH]c2ccc(O)cc12)C(=O)O [5-HTP, 5-Hydroxytryptophane]
- concentration of NA and DA ([5]; high doses, parenteral): decrease the concentration of NA and DA
- brain concentration of 5-HT ([5]; parenteral treatment): increases the brain concentration of 5-HT
- motility / locomotor activity (mice [6]; 5-HTP 150 mg/kg): producing a small decrease of motility
- motility / locomotor activity (mice [6]; 5-HTP 600 mg/kg): increasing the activity

Structure (SMILES): NNCc1cccc(O)c1 [3-hydroxybenzylhydrazine]
- effect of pretreatment on the hyperactivity (5-HTP plus 5-HT-uptake blocker) (mice [4]): inhibited it significantly

Structure (SMILES): CC(=O)O.COc1ccc(OC[C@@H]2CNCC[C@H]2c2ccc(F)cc2)cc1 (single isomer, unassigned) [FG 8035, (+)-trans-4-(4-fluorophenyl)-3-((4-methoxyphenoxy)methyl)piperidine acetate]
- ED (2-fold activity of controls) (5-HT uptake; [7]): 22 mg/kg
- LD50 at 24 h [1]: 530 mg/kg
- TI (Therapeutic Index), 001/173 (mice [2]): 24
